In brackets after ≈: the same amount, converted by molar mass.

Common to all, as to type: functional
One experiment has as its system Cryptococcus neoformans. In words: Antifungal activity against Cryptococcus neoformans GOYJ11988 assessed as fungal growth inhibition incubated for 24 hrs by serial dilution method.
The test system of a further experiment is Candida albicans. The experiment is described as follows: Antifungal activity against Candida albicans SC5314 assessed as fungal growth inhibition incubated for 24 hrs by serial dilution method.
For a further experiment, the system named is Fusarium oxysporum. The experiment is described as follows: Antifungal activity against Fusarium oxysporum ATCC 28856 assessed as fungal growth inhibition incubated for 24 hrs by serial dilution method.

For the compound `C[C@@H]1C(=O)N2CCC[C@H]2[C@]2(O)O[C@@](C)(NC(=O)/C=C/c3ccccc3)C(=O)N12`, the results for the minimal inhibitory concentration (MIC) in the experiment on Cryptococcus neoformans, in the experiment on Candida albicans and in the experiment on Fusarium oxysporum were 80 µg/mL (≈ 208 µM), 40 µg/mL (≈ 104 µM) and 25 µg/mL (≈ 64.9 µM), respectively.
Regarding `C[C@@H]1C(=O)N2CCC[C@H]2[C@]2(O)O[C@@](CO)(NC(=O)/C=C/c3ccccc3)C(=O)N12`, the MIC in the experiment on Cryptococcus neoformans worked out at 80 µg/mL (≈ 199 µM); in the experiment on Candida albicans it was 40 µg/mL (≈ 99.6 µM); in the experiment with Fusarium oxysporum, 12.5 µg/mL (≈ 31.1 µM).

The term MIC denotes the smallest concentration in the dilution series that meets the test's criterion for growth inhibition.

(Values after ChEMBL document CHEMBL5126658, “Talaropeptins A and B, Tripeptides with an N-trans-Cinnamoyl Moiety from the Marine-Derived Fungus Talaromyces purpureogenus CX11” (2022).)
